# Reference: PMC6491988, “Distinct Lipid Transfer Proteins display different IgE‐binding activities that are affected by fatty acid binding” (Allergy, 2018)
# Key:
# rMal d 3 = molecular target: T1, rMal d 3 (Malus domestica, UniProt Q9M5X7); test: ANS displacement fluorescence; assay type: binding; conditions: 50 μmol/L ligand, protein:ligand 1:5
# T1 construct: gene MALD3; recombinant, produced in Pichia pastoris, purified
# T1 sequence (Q9M5X7 25-115): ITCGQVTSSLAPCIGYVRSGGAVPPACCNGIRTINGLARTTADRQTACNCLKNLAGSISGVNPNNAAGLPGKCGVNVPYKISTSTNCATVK
# rCor a 8 = molecular target: T2, rCor a 8 (Corylus avellana, UniProt Q9ATH2); test: ANS displacement fluorescence; assay type: binding; conditions: 50 μmol/L ligand, protein:ligand 1:5
# T2 construct: recombinant, produced in Pichia pastoris, purified
# T2 sequence (Q9ATH2 24-115): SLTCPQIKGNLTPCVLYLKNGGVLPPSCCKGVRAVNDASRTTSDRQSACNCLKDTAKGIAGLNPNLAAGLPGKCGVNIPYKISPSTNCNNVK
% reduction of ANS fluorescence at 50 μmol/L (rMal d 3),% reduction of ANS fluorescence at 50 μmol/L (rCor a 8),SMILES
17%,,"CCCCCCCCCCCCCCCCCC(=O)O [STE, stearic acid]"
59%,23%,"CCCCCCCC/C=C\CCCCCCCC(=O)O [OLE, oleic acid]"
